Measured values as given in patent publication US20220033407A1, “N-(pyridin-2-ylsulfonyl)cyclopropanecarboxamide Derivatives and their Use in the Treatment of Disease” (NOVARTIS AG, priority 2018, published 2022).

Experiments:
delF508-CFTR-HRP = target: T1, delF508-CFTR-HRP (Homo sapiens, UniProt P13569, DEL508-508); test: Measurement of delF508-CFTR-HRP surface expression in CFBE41o- cells (HRP luminescence); assay type: cell-based; conditions: for Emax: CFBE41o-, read-out: DelF508-CFTR-HRP Amax %; for EC50: mean of at least two replicates;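 for DelF508-CFTR-HRP Amax %: percent efficacy relative to a reference CFTR corrector compound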
T1 construct: expressed in transfected cells
T1 sequence (P13569 with tags, fused parts or gaps DEL508-508): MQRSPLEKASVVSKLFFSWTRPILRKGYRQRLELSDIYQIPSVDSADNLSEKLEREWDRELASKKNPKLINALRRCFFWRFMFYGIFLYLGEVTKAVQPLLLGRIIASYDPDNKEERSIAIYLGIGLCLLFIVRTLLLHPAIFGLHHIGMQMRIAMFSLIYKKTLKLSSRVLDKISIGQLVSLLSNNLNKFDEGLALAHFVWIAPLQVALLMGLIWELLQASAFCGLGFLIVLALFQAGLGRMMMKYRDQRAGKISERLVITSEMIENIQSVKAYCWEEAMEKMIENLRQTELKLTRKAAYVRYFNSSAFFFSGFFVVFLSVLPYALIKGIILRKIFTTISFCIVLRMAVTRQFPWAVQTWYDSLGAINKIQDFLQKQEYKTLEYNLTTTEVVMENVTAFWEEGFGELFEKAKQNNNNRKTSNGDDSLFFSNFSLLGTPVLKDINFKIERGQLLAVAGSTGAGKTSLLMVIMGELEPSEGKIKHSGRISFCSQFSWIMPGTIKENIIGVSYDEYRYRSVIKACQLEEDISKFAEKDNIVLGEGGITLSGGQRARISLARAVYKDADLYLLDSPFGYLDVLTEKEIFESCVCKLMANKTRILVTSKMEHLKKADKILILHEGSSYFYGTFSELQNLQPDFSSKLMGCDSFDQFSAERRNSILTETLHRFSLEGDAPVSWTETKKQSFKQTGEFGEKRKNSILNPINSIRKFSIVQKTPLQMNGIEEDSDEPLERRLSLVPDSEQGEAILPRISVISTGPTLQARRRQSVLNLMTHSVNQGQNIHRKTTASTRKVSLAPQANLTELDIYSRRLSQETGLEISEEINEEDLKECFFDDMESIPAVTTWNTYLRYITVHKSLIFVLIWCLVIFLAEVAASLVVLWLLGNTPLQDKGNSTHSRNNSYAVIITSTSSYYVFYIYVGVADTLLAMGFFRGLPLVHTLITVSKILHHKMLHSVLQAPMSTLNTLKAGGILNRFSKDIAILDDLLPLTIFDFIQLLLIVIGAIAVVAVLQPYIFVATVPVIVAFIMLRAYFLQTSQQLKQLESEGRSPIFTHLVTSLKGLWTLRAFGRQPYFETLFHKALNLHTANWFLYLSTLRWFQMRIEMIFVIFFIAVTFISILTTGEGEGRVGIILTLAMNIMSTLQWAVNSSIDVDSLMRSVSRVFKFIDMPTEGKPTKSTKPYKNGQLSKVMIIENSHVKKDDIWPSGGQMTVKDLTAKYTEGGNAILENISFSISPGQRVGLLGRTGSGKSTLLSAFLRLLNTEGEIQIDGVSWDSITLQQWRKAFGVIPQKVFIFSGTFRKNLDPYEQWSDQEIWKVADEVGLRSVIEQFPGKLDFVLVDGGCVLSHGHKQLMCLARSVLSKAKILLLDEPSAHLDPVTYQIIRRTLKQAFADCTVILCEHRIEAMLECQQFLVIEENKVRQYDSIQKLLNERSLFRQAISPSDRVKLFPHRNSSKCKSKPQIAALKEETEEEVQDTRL
Outline: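 Stably transfected CFBE41o- cells carrying HRP in the fourth extracellular loop of delF508-CFTR, induced with 500 ng/mL doxycycline for 48 h, then compound-treated 24 h at 37° C (10-point, 3-fold, top 10 μM). Surface HRP detected by luminescent substrate; EC50 from logistic fit, triplicates, normalized to lowest-concentration median.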

delF508-CFTR = target: T2, delF508-CFTR (Homo sapiens, UniProt P13569, DEL508-508); test: delF508-CFTR functional activity in primary human bronchial epithelial cells (HBECs), Multi-Transepithelial Clamp Circuit (MTECC-24) assay, equivalent short circuit current; assay type: cell-based; conditions: primary CF HBECs; for MTECC24 CFHBEC-Amax %: relative to reference combination 2 μM 3-(6-(1-(2,2-difluorobenzo[d][1,3]dioxol-5-yl)cyclopropane-1-carboxamido)-3-methylpyridin-2-yl)benzoic acid (24 h) + 0.5 μM N-(2,4-di-tert-butyl-5-hydroxyphenyl)-4-oxo-1,4-dihydroquinoline-3-carboxamide; for EC50: test compound added 24 h before assay, potentiator (S)-3-amino-6-methoxy-N-(3,3,3-trifluoro-2-hydroxy-2-methylpropyl)-5-(trifluoromethyl)picolinamide present at assay, mean of at least two replicates, read-out: MTECC24 CFHBEC-EC50
T2 construct: functional activity of the CFTR channel (Chloride ion transport) in patient derived primary human bronchial epithelial cells; host or cells: patient-derived primary human bronchial epithelial cells (HBECs), delF508-CFTR
T2 sequence (P13569 with tags, fused parts or gaps DEL508-508): as above
Excerpt: Measurement of delF508-CFTR Functional Activity in Primary Human Bronchial Epithelial Cells (HBECs) Using Multi-Transepithelial Clamp Circuit (MTECC-24) Assay
This assay measures the functional activity of the CFTR channel (Chloride ion transport) in patient derived primary human bronchial epithelial cells with forskolin activation and in the presence of the CFTR corrector wherein the corrector is a compound of the invention and the potentiator is (S)-3-amino-6-methoxy-N-(3,3,3-trifluoro-2-hydroxy-2-methylpropyl)-5-(trifluoromethyl)picolinamide.
Primary human delF508-CFTR bronchial epithelial cells were purchased from Asterand and cultured according to previously established methods (Fulcher et al. (2005) Methods Mol Med 107: 183-206). Briefly, vendor supplied cells were rapidly defrosted and added to a T175 flask in 50 mL growth media (Lonza BEBM media with Lonza BEGM singlequots). Media was replaced after 24 h and then cells were fed every other day until cells were 80-90% confluent, at which point cells were cryopreserved. These P1 vials were thawed at 37° C. as needed and added to T175 flasks in 50 mL growth media at 5×10^5 cells/flask. Media was replaced after 24 h, and then cells were fed every other day until 80-90% confluent. Cells were lifted with 5 mL Accutase at 37° C. for 5 minutes, centrifuged at 1000 rpms for 5 min (300 g), and resuspended in differentiation media (50% BEBM in DMEM, BEGM singlequots, all trans retinoic acid (5×10·8M)). Cells were then counted and cell suspension was added to collagen coated inserts at 3×10^4 cells/insert in 0.15 mL with 0.5 mL differentiation media on the basolateral side.
Apical and basolateral media were replaced on alternate days, and following day 7 (or when confluent plus 2 days), air liquid interface was established for approximately two weeks by removal of apical media. One day prior to use on the MTECC24 system (EP-Devices, EP Design, Belgium), 0.15 mL of warmed (37° C.) PBS was added to the apical surface of the cultures and returned to humidifier (37° C., 5% CO2 incubator) for 30 min before aspirating the apical surface to remove any mucus.
Compound treatments were then prepared. Compound dilutions, typically a 10 point concentration response with 1 in 3 dilution steps, were made in 100% DMSO before dilution 1 in 1000 into differentiation medium with a final DMSO concentration of 0.1% or 0.2% for the study. Compound containing medium was then transferred into the wells of a 24 well plate at 0.5 mL per well and warmed for 30 min in a 37° C. incubator prior to transferring washed inserts into the compound containing plates. Cells were incubated in compound containing medium (basolateral only) for 24 h prior to measurement in the MTECC24 system.
Following 24 hr treatment, compound dilutions were prepared again, diluted 1 in 1000 into 37° C. assay medium (F-12 Coon's modified, 20 mM HEPES pH7.4 with TRIS Base, No FCS or bicarbonate). Cells which were treated for 24 h with test compound were then transferred into plates containing 0.75 mL compound treatment in assay medium (basolateral) and 0.25 mL of the compound containing assay medium was added to the apical surface. The plates were then transferred to the heated plate compartments of the MTECC24 system for 45 min prior to measurements (this can also be done in a non-CO2 37° C. humidified incubator). Basolateral temperature should not exceed 36.5° C. and apical temperature should be approximately 35.5° C.
Modulators were added sequentially as follows while the MTECC24 instrument recorded the equivalent short circuit current (Ieq)
Prior to dilution into F-12 medium the stocks are as follows: Amiloride stock is 10 mM in H2O
Forskolin Stock is 10 mM in 100% DMSO
(S)-3-amino-6-methoxy-N-(3,3,3-trifluoro-2-hydroxy-2-methylpropyl)-5-(trifluoromethyl)picolinamide is 0.5 mM stock in 100% DMSO INH-172 (4-[[4-Oxo-2-thioxo-3-[3-trifluoromethyl)phenyl]-5-thiazolidinylidene]methyl]benzoic acid) stock is 30 mM in 100% DMSO […]

Row | Structure (SMILES) | Emax (delF508-CFTR-HRP) [%] | EC50 (delF508-CFTR-HRP) [nM] | MTECC24 CFHBEC-Amax % (delF508-CFTR) [%] | EC50 (delF508-CFTR) [nM] | DelF508-CFTR-HRP Amax % (delF508-CFTR-HRP) [%]
1 | O=C(NS(=O)(=O)c1cccc(N2CC[C@H](O)C2)n1)C1(Oc2cc(Cl)ccc2NC2CCC(C(F)(F)F)CC2)CC1 (stereo partly drawn) [Example 9-19, (S)-1-(5-Chloro-2-((4-(trifluoromethyl)cyclohexyl)amino)phenoxy)-N-((6-(3-hydroxypyrrolidin-1-yl)pyridin-2-yl)sulfonyl)cyclopropanecarboxamide] | 594 | 2420 | 161.2 | 749 | –
2 | Cc1ccc(C2CCC(C)(C)OC2)c(OC2(C(=O)NS(=O)(=O)c3cccc(N4CCC(O)(c5ccc(Cl)cc5)CC4)n3)CC2)c1 (single isomer, unassigned) [Example 11-1-1, N-((6-(4-(4-chlorophenyl)-4-hydroxypiperidin-1-yl)pyridin-2-yl)sulfonyl)-1-(2-(6,6-dimethyltetrahydro-2H-pyran-3-yl)-5-methylphenoxy)cyclopropane-1-carboxamide] | – | 920 | 148.8 | 394 | 920.6
3 | Cc1ccc(CC(C)C)c(OC2(C(=O)NS(=O)(=O)c3cccc(NC[C@H](C)O)n3)CC2)c1 [Example 4-9, (S)-N-((6-((2-Hydroxypropyl)amino)pyridin-2-yl)sulfonyl)-1-(2-isobutyl-5-methylphenoxy)cyclopropane-1-carboxamide] | 477 | 3460 | 70 | 23 | –
4 | Cc1ccc(C2CCCCC2)c(OC2(C(=O)NS(=O)(=O)c3cccc(N4CCOC[C@H]4C)n3)CC2)c1 [Example 2-26, (R)-1-(2-Cyclohexyl-5-methylphenoxy)-N-((6-(3-methylmorpholino)pyridin-2-yl)sulfonyl)cyclopropanecarboxamide] | 500 | 1410 | 89 | 6 | –
5 | O=C(NS(=O)(=O)c1cccc(N2CC[C@H](O)C2)n1)C1(Oc2cc(C(F)(F)F)ccc2-c2cccc(C(F)(F)F)c2)CC1 [Example 5-5, (S)-1-((3′,4-Bis(trifluoromethyl)-[1,1′-biphenyl]-2-yl)oxy)-N-((6-(3-hydroxypyrrolidin-1-yl)pyridin-2-yl)sulfonyl)cyclopropane-1-carboxamide] | 242 | 2050 | 94 | 71 | –
6 | Cc1ccc(-c2cc(F)cc(OCC(C)C)c2)c(OC2(C(=O)NS(=O)(=O)c3cccc(N)n3)CC2)c1 [Example 1-2, N-((6-Aminopyridin-2-yl)sulfonyl)-1-((3′-fluoro-5′-isobutoxy-4-methyl-[1,1′-biphenyl]-2-yl)oxy)cyclopropane-1-carboxamide] | 136 | 2440 | 89 | 45 | –
7 | O=C(NS(=O)(=O)c1cccc(N2CCC(O)(C(F)(F)F)CC2)n1)C1(Oc2cc(Cl)ccc2C2CC3(CCC3)C2)CC1 [Example 7-1, 1-(5-Chloro-2-(spiro[3.3]heptan-2-yl)phenoxy)-N-((6-(4-hydroxy-4-(trifluoromethyl)piperidin-1-yl)pyridin-2-yl)sulfonyl)cyclopropanecarboxamide] | 445 | 490 | 203.8 | 132 | –
8 | Cc1ccc(OC2CCC3CCCCC3C2)c(OC2(C(=O)NS(=O)(=O)c3cccc(N4CC[C@H](O)C4)n3)CC2)c1 (stereo partly drawn) [Example 6-9, 1-(2-((decahydronaphthalen-2-yl)oxy)-5-methylphenoxy)-N-((6-((S)-3-hydroxypyrrolidin-1-yl)pyridin-2-yl)sulfonyl)cyclopropanecarboxamide] | 382 | 1280 | 107.4 | 289 | –
9 | Cc1ccc(C2CCCCC2)c(OC2(C(=O)NS(=O)(=O)c3cccc(N4CCC(C(=O)OC5CCCC5)CC4)n3)CC2)c1 [Example 2-7] | 389 | 730 | 63 | 16 | –
10 | O=C(NS(=O)(=O)c1cccc(N2CC[C@H](O)C2)n1)C1(Oc2cc(Cl)ccc2-c2ccc3c(c2)OC(F)(F)O3)CC1 [Example 5-15, (S)-1-(5-Chloro-2-(2,2-difluorobenzo[d][1,3]dioxol-5-yl)phenoxy)-N-((6-(3-hydroxypyrrolidin-1-yl)pyridin-2-yl)sulfonyl)cyclopropane-1-carboxamide] | 361 | 2540 | – | – | –

The remaining lines, values ahead:

Row | Emax (delF508-CFTR-HRP) [%] | EC50 (delF508-CFTR-HRP) [nM] | MTECC24 CFHBEC-Amax % (delF508-CFTR) [%] | EC50 (delF508-CFTR) [nM] | DelF508-CFTR-HRP Amax % (delF508-CFTR-HRP) [%] | Structure (SMILES)
11 | 388 | 2200 | 80 | 11 | – | Cc1ccc(CC(C)C)c(OC2(C(=O)NS(=O)(=O)c3cccc(N4CCC[C@@H](CO)C4)n3)CC2)c1 [Example 4-8, (R)-N-((6-(3-(hydroxymethyl)piperidin-1-yl)pyridin-2-yl)sulfonyl)-1-(2-isobutyl-5-methylphenoxy)cyclopropane-1-carboxamide]
12 | 429 | 530 | 83 | 49 | – | Cc1ccc(C2CCCCC2)c(OC2(C(=O)NS(=O)(=O)c3cccc(N4CCC5(CC4)CC(=O)c4cc(F)ccc4O5)n3)CC2)c1 [Example 2-28, 1-(2-Cyclohexyl-5-methylphenoxy)-N-((6-(6-fluoro-4-oxospiro[chroman-2,4′-piperidin]-1′-yl)pyridin-2-yl)sulfonyl)cyclopropanecarboxamide]
13 | 120 | 3980 | 66 | 256 | – | Cc1ccc(C2CCCCC2)c(OC2(C(=O)NS(=O)(=O)c3cccc(N4C[C@@H]5C[C@@H]5[C@H](N)C4)n3)CC2)c1 (relative stereo) [Example 2-44, N-((6-(5-cis-amino-3-azabicyclo[4.1.0]heptan-3-yl)pyridin-2-yl)sulfonyl)-1-(2-cyclohexyl-5-methylphenoxy)cyclopropane-1-carboxamide]
14 | 115 | 3100 | 66 | 35 | – | CC(C)Cc1ccc(Cl)cc1OC1(C(=O)NS(=O)(=O)c2cccc(NC[C@H](C)O)n2)CC1 [Example 4-11, (S)-1-(5-Chloro-2-isobutylphenoxy)-N-((6-((2-hydroxypropyl)amino)pyridin-2-yl)sulfonyl)cyclopropane-1-carboxamide]
15 | 313 | 1580 | 62 | 99 | – | O=C(NS(=O)(=O)c1cccc(N2CC[C@H](O)C2)n1)C1(Oc2cc(Cl)ccc2-c2cccc(C(F)(F)F)c2)CC1 [Example 5-2, (S)-1-((4-Chloro-3′-(trifluoromethyl)-[1,1′-biphenyl]-2-yl)oxy)-N-((6-(3-hydroxypyrrolidin-1-yl)pyridin-2-yl)sulfonyl)cyclopropane-1-carboxamide]
